Experiments:
Assay type in all cases: in vivo
Sinapis alba (SINAL) = test: Post-emergence application in field trials, SINAL; conditions: 7 DAT; water volume 200 l/ha; growth stage 14-21; height 11-12 cm; 12.5 g ai/ha
Procedure: (§1) In the examples below, using the method of S. R. Colby (1967) “Calculating synergistic and antagonistic responses of herbicide combinations”, Weeds 15, p. 22ff., the value E, which is expected if the activity of the individual active compounds is only additive, was calculated: E=X+Y−(X·Y/100) • where • X=percent activity using active herbicide A at an application rate a; • Y=percent activity using active trifludimoxazin at an application rate b; • E=expected activity (in %) by A+B at application rates a+b.
(§2) If the value found experimentally is higher than the value E calculated according to Colby, a synergistic effect is present.
(§3) On field test sites, natural weed infestation or seeded weeds were treated post-emergence of the weeds.
(§4) In the field trials, the weedy plants were treated as indicated below.
(§5) Herbicide A-1 (342 g/I), trifludimoxazin (500 g/I) and saflufenacil (342 g/I) were, together with addition of 1% MSO (methylated seed oil) as adjuvant (unless indicated otherwise), formulated in water as distribution medium as indicated and sprayed with commercial flat fan nozzles.
(§6) In the following experiments, the herbicidal activity for the individual herbicidal compositions (solo and mixture applications) was assessed at the indicated days after treatment (DAT). […]

[1] = tested on: Euphorbia heterophylla (EPHHL); test: Post-emergence application in field trials, EPHHL; conditions: 43 DAT, water volume 200 l/ha, growth stage 16-18, height 10-15 cm
Procedure: as §1, §2, §3, §4, §5, §6

Sorghum bicolor (SORVU) = test: Post-emergence application in field trials, SORVU; conditions: 22 DAT, water volume 200 l/ha, growth stage 21-31, volunteer crop, non PPO-i herbicide tolerant
Procedure: as §1, §2, §3, §4, §5, §6

[2] = tested on: Brachiaria decumbens (BRADC); test: Post-emergence application in field trials, BRADC; conditions: 3 DAT, water volume 200 l/ha, growth stage 21-31, height 3-20 cm
Procedure: as §1, §2, §3, §4, §5, §6

[3] = tested on: Echinocloa crus-galli (ECHCG); test: Post-emergence application in greenhouse trials, ECHCG; conditions: GS 13
Procedure: as §1, §2
(§7) The culture containers used were plastic pots containing loamy sand with approximately 3.0% of humus as substrate. The seeds of the test plants were sown separately for each species.
(§8) For the post-emergence treatment, the test plants were grown to a plant height of from 3 to 15 cm, depending on the plant habit, and only then treated with the active compounds which had been suspended or emulsified in water. To this end, the test plants were either sown directly, and grown in the same containers, or they were first grown separately as seedlings and transplanted into the test containers a few days prior to treatment.
(§9) Depending on the species, the plants were kept at 10-25° C. and 20-35° C., respectively.
(§10) The test period extended over 2 to 4 weeks. During this time, the plants were tended and their response to the individual treatments was evaluated.
(§11) Evaluation was carried out using a scale from 0 to 100. 100 means no emergence of the plants, or complete destruction of at least the above-ground parts, and 0 means no damage or normal course of growth. A good herbicidal activity is given at values of at least 70, and very good herbicidal activity is given at values of at least 85.
(§12) In the greenhouse trials, unless indicated otherwise, herbicide A, trifludimoxazin and saflufenacil were formulated (50 g/I) and applied with addition of 1% MSO (methylated seed oil) as adjuvant. The solvent used was water (200 I/ha).

[4] = tested on: Senna obtusifolia (CASOB); test: Post-emergence application in field trials, CASOB; conditions: 43 DAT, water volume 200 l/ha, growth stage 12-35, height 5-20 cm
Procedure: as §1, §2, §3, §4, §5
In the following experiments, the herbicidal activity for the individual herbicidal compositions (solo and mixture applications) was assessed at the indicated days after treatment (DAT). The assessments for the damage on undesired weeds caused by the composition was carried out using a scale from 0 to 100%, compared to the untreated control plants. Here, 0 means no damage and 100 means complete destruction of the plants.
Herbicide A-1 (100 g/l) and trifludimoxazin (500 g/l) were, together with addition of 1% MSO (methylated seed oil) as adjuvant (unless indicated otherwise), formulated in water as distribution medium as indicated and sprayed with commercial flat fan nozzles.

Kochia scoparia (KCHSC) [5] = test: Post-emergence application in greenhouse trials, KCHSC
Procedure: as §1, §2, §7, §8, §9, §10, §11, §12

[6] = tested on: Abutilon theophrasti (ABUTH); test: Post-emergence application in greenhouse trials, ABUTH
Procedure: as §1, §2, §7, §8, §9, §10, §11, §12

Kochia scoparia (KCHSC) [7] = test: Post-emergence application in field trials, KCHSC; conditions: 28 DAT; water volume 100 l/ha; pre plant burndown; growth stage 11-16; height 1-9 cm; 18 g ai/ha
Procedure: as §1, §2, §3, §4, §5, §6

[8] = tested on: Erigeron canadensis (ERICA); test: Post-emergence application in field trials, ERICA; conditions: 22 DAT; water volume 200 l/ha; growth stage 15-20; 25 g ai/ha
Procedure: as §1, §2, §3, §4, §5, §6

Setaria italica (SETIT) = test: Post-emergence application in field trials, SETIT; conditions: 22 DAT, water volume 200 l/ha, growth stage 21-31
Procedure: as §1, §2, §3, §4, §5, §6

[9] = 20 DAT, growth stage 33, 0.3 g ai/ha
[10] = 20 DAT, growth stage 33, 0.5 g ai/ha
[11] = 20 DAT, growth stage 33, 0.2 g ai/ha

Compound: C#CCN1C(=O)C(F)(F)Oc2cc(F)c(-n3c(=O)n(C)c(=S)n(C)c3=O)cc21 [B-1, trifludimoxazin]
- % Herbicidal activity (Sinapis alba (SINAL)): 82%
- % Herbicidal activity ([1]; 12.5 g ai/ha): 60%
- % Herbicidal activity (Sorghum bicolor (SORVU); 12.5 g ai/ha): 20%
- % Herbicidal activity ([2]; 12.5 g ai/ha): 43%
- % Herbicidal activity ([3]; 7 DAT, B-1 0.8 g ai/ha): 40%
- % Herbicidal activity ([3]; 20 DAT, B-1 1.1 g ai/ha): 60%
- % Herbicidal activity ([4]; 12.5 g ai/ha): 48%
- % Herbicidal activity (Kochia scoparia (KCHSC) [5]; 6 DAT, GS 33, B-1 0.3 g ai/ha): 45%
- % Herbicidal activity (Kochia scoparia (KCHSC) [5]; 6 DAT, GS 33, B-1 0.5 g ai/ha): 80%
- % Herbicidal activity (Kochia scoparia (KCHSC) [5]; 6 DAT, GS 33, B-1 0.8 g ai/ha): 85%
- % Herbicidal activity (Kochia scoparia (KCHSC) [5]; 20 DAT, GS 33, B-1 0.3 g ai/ha): 35%
- % Herbicidal activity (Kochia scoparia (KCHSC) [5]; 20 DAT, GS 33, B-1 0.9 g ai/ha): 80%
- % Herbicidal activity (Kochia scoparia (KCHSC) [5]; 20 DAT, GS 33, B-1 1 g ai/ha): 98%
- % Herbicidal activity (Kochia scoparia (KCHSC) [5]; [9]): 35%
- % Herbicidal activity (Kochia scoparia (KCHSC) [5]; [10]): 75%
- % Herbicidal activity ([6]; 6 DAT, GS 33, B-1 0.2 g ai/ha): 20%
- % Herbicidal activity ([6]; 6 DAT, GS 33, B-1 0.3 g ai/ha): 20%
- % Herbicidal activity ([6]; 6 DAT, GS 33, B-1 0.4 g ai/ha): 35%
- % Herbicidal activity ([6]; 20 DAT, GS 33, B-1 0.3 g ai/ha): 0%
- % Herbicidal activity [6, 11]: 0%
- % Herbicidal activity (Kochia scoparia (KCHSC) [7]): 68%
- % Herbicidal activity [8]: 27%
- % Herbicidal activity (Setaria italica (SETIT); 12.5 g ai/ha): 27%

Compound: CCOC(=O)COc1ccccc1Oc1nc(-n2c(=O)cc(C(F)(F)F)n(C)c2=O)c(F)cc1Cl [A-1, ethyl 2-[2-[[3-chloro-5-fluoro-6-[3-methyl-2,6-dioxo-4-(trifluoromethyl)pyrimidin-1-yl]-2-pyridyl]oxy]phenoxy]acetate]
- % Herbicidal activity (Sinapis alba (SINAL)): 55%
- % Herbicidal activity ([1]; 20 g ai/ha): 73%
- % Herbicidal activity (Sorghum bicolor (SORVU); 20 g ai/ha): 93%
- % Herbicidal activity ([2]; 20 g ai/ha): 77%
- % Herbicidal activity ([3]; 7 DAT, A-1 0.4 g ai/ha): 40%
- % Herbicidal activity ([3]; 20 DAT, A-1 0.2 g ai/ha): 0%
- % Herbicidal activity ([4]; 20 g ai/ha): 58%
- % Herbicidal activity ([4]; 30 g ai/ha): 73%
- % Herbicidal activity (Kochia scoparia (KCHSC) [5]; 6 DAT, GS 33, A-1 0.4 g ai/ha): 55%
- % Herbicidal activity (Kochia scoparia (KCHSC) [5]; 6 DAT, GS 33, A-1 0.5 g ai/ha): 65%
- % Herbicidal activity (Kochia scoparia (KCHSC) [5]; 6 DAT, GS 33, A-1 0.9 g ai/ha): 90%
- % Herbicidal activity (Kochia scoparia (KCHSC) [5]; 20 DAT, GS 33, A-1 0.2 g ai/ha): 15%
- % Herbicidal activity (Kochia scoparia (KCHSC) [5]; 20 DAT, GS 33, A-1 0.3 g ai/ha): 55%
- % Herbicidal activity (Kochia scoparia (KCHSC) [5]; 20 DAT, GS 33, A-1 0.5 g ai/ha): 55%
- % Herbicidal activity (Kochia scoparia (KCHSC) [5]; 20 DAT, GS 33, A-1 0.9 g ai/ha): 90%
- % Herbicidal activity (Kochia scoparia (KCHSC) [5]; [9]): 55%
- % Herbicidal activity (Kochia scoparia (KCHSC) [5]; [10]): 55%
- % Herbicidal activity ([6]; 6 DAT, GS 33, A-1 0.2 g ai/ha): 65%
- % Herbicidal activity ([6]; 6 DAT, GS 33, A-1 0.3 g ai/ha): 65%
- % Herbicidal activity ([6]; 6 DAT, GS 33, A-1 0.8 g ai/ha): 85%
- % Herbicidal activity ([6]; 20 DAT, GS 33, A-1 0.2 g ai/ha): 15%
- % Herbicidal activity ([6]; 20 DAT, GS 33, A-1 0.3 g ai/ha): 15%
- % Herbicidal activity [6, 11]: 15%
- % Herbicidal activity (Kochia scoparia (KCHSC) [7]): 57%
- % Herbicidal activity [8]: 70%
- % Herbicidal activity (Setaria italica (SETIT); 30 g ai/ha): 88%
